pIC50: −log10 of the molar value.

T1 sequence (P98170 241-356): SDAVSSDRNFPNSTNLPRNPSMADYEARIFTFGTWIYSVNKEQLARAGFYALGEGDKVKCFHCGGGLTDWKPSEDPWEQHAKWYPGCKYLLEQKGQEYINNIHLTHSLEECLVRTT

The test has as its target T1, XIAP BIR3 (Homo sapiens, UniProt P98170).
T1 construct: covering amino acids 241 to 356; XIAP BIR3; made in house; host or cells: E. coli
Kind of test: XIAP BIR3 binding assay (DELFIA), displacement of SMAC peptide. The following applies: GST-fusion BIR3 domain (aa 241 to 356) 10 nM, SMAC peptide 10 nM; activity of the (S)-isomers. A digest of the protocol: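 Each BIR3 domain (10 nM) incubated with biotinylated N-terminal SMAC peptide (10 nM) and compound for 1 h at room temp in Tris/NaCl buffer with BSA, DTT and Triton X-100. Captured on streptavidin plates; bound BIR3 detected by Eu-labelled anti-GST time-resolved fluorescence, giving IC50 values.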
Molecule `Cc1cccc(C#Cc2cccc(NC(=O)C(C)N)n2)c1` (stereo not drawn) [Example 221, 2-amino-N-[6-[2-(3-methylphenyl)ethynyl]pyridin-2-yl]propanamide] showed a pIC50 of 6.65.

`Cc1ccc(C#Cc2nc(NC(=O)C(C)N)cc3ccccc23)cc1` (stereo not drawn) [Example 205, 2-amino-N-[1-[2-(4-methyl-phenyl)ethynyl]isoquinolin-3-yl]propanamide] gave a pIC50 of 5.64.

In turn, `CNC(C)C(=O)Nc1ccc(-c2cncnc2)c(C#Cc2ccc3ccccc3n2)n1` (stereo not drawn) [Example 9, 2-(methylamino)-N-[5-pyrimidin-5-yl-6-(2-quinolin-2-ylethynyl)pyridin-2-yl]-propanamide] had a pIC50 of 6.00.

Molecule `CNC(C)C(=O)Nc1ccc(-c2cncnc2)c(C#Cc2ccc3scnc3c2)n1` (stereo not drawn) [Example 15, N-[6-[2-(1,3-benzothiazol-5-yl)ethynyl]-5-pyrimidin-5-ylpyridin-2-yl]-2-(methyl-amino)propanamide] gave a pIC50 of 6.15.

As for `CC(N)C(=O)Nc1ccc(-c2cc(F)cc(F)c2)c(C#Cc2ccccc2)n1` (stereo not drawn) [Example 111, 2-amino-N-[5-(3,5-difluorophenyl)-6-(2-phenyl-ethynyl)pyridin-2-yl]propanamide], the pIC50 was 5.81.

With `CCNC(CC)C(=O)Nc1ccc(-c2cncnc2)c(C#Cc2ccc3ncccc3c2)n1` (stereo not drawn) [Example 169, 2-(ethylamino)-N-[5-pyrimidin-5-yl-6-(2-quinolin-6-ylethynyl)pyridin-2-yl]butanamide], the pIC50 is 5.94. This pIC50 and that of the molecule before are within 0.2 log units of each other.

The molecule `CNC(C)C(=O)Nc1ccc(-c2c(C)nc3ccccn23)c(C#Cc2ccc(-c3ccncn3)cc2)n1` (stereo not drawn) [Example 55, 2-(methylamino)-N-[5-(2-methylimidazo[1,2-a]pyridin-3-yl)-6-[2-(4-pyrimidin-4-ylphenyl)ethynyl]pyridin-2-yl]-propanamide] had a pIC50 of 6.51.

With `CCCc1ccc(NC(=O)C(C)N)nc1C#Cc1ccccc1` (stereo not drawn) [Example 167, 2-amino-N-[6-(2-phenylethynyl)-5-propylpyridin-2-yl]propanamide], the pIC50 is 6.06.

Turning to `CC(N)C(=O)Nc1ccc(-c2cc(F)cc(C(F)(F)F)c2)c(C#Cc2ccccc2)n1` (stereo not drawn) [Example 115, 2-amino-N-[5-[3-fluoro-5-(trifluoromethyl)phenyl]-6-(2-phenylethynyl)pyridin-2-yl]-propanamide], the pIC50 was 5.69.

For the molecule `CC(N)C(=O)Nc1cccc(C#Cc2ccc(Cl)cc2)n1` (stereo not drawn) [Example 211, 2-amino-N-[6-[2-(4-chlorophenyl)ethynyl]pyridin-2-yl]propanamide], the pIC50 is 5.70.

`CNC(C)C(=O)Nc1ccc(-c2c(C)nc(N(C)C)nc2C)c(C#Cc2ccc3ncccc3c2)n1` (stereo not drawn) [Example 76, N-[5-[2-(dimethylamino)-4,6-dimethylpyrimidin-5-yl]-6-(2-quinolin-6-ylethynyl)pyridin-2-yl]-2-(methylamino)propan-amide] showed a pIC50 of 5.97.

`CNC(C)C(=O)Nc1ccc(-c2c(OC)ccc3ccccc23)c(C#Cc2ccccc2)n1` (stereo not drawn) [Example 163, N-[5-(2-methoxynaphthalen-1-yl)-6-(2-phenylethynyl)pyridin-2-yl]-2-(methylamino)propanamide] gave a pIC50 of 5.35.

Molecule `CNC(C)C(=O)Nc1ccc(-c2c(C)nc(N3CCOCC3)nc2C)c(C#Cc2ccc3cnccc3c2)n1` (stereo not drawn) [Example 83, N-[5-(4,6-dimethyl-2-morpholin-4-ylpyrimidin-5-yl)-6-(2-isoquinolin-6-ylethynyl)-pyridin-2-yl]-2-(methylamino)-propanamide] had a pIC50 of 6.35. This pIC50 lies 1.00 log units higher than the previous one.

`CNC(C)C(=O)Nc1ccc(NC(=O)C2CCCC2)c(C#Cc2ccccc2)n1` (stereo not drawn) [Example 245, N-[6-[[2-(methylamino)-propanoyl]amino]-2-(2-phenylethynyl)pyridin-3-yl]-cyclopentanecarboxamide] showed a pIC50 of 5.89.

In turn, `CNC(C)C(=O)Nc1ccc(-c2cccc3cnccc23)c(C#Cc2ccc(C)cc2)n1` (stereo not drawn) [Example 144, N-[5-isoquinolin-5-yl-6-[2-(4-methylphenyl)ethynyl]pyridin-2-yl]-2-(methylamino)propanamide] had a pIC50 of 6.40.

For the molecule `CC(N)C(=O)Nc1cccc(C#Cc2c(F)cccc2F)n1` (stereo not drawn) [Example 230, 2-amino-N-[6-[2-(2,6-difluorophenyl)ethynyl]pyridin-2-yl]propanamide], the pIC50 was 5.62.

Molecule `CNC(C)C(=O)Nc1ccc(-c2ccccc2Cl)c(C#Cc2ccccc2)n1` (stereo not drawn) [Example 116, N-[5-(2-chlorophenyl)-6-(2-phenylethynyl)pyridin-2-yl]-2-(methylamino)propanamide] had a pIC50 of 5.75.

`CC(N)C(=O)Nc1ccc(-c2cccc(C(=O)O)c2)c(C#Cc2ccccc2)n1` (stereo not drawn) [Example 99, 3-[6-(2-aminopropanoylamino)-2-(2-phenylethynyl)pyridin-3-yl]-benzoic acid]: the pIC50 was 6.28.

With `CNC(C)C(=O)Nc1ccc(-c2cscc2-c2ccncc2)c(C#Cc2ccccc2)n1` (stereo not drawn) [Example 180, 2-(methylamino)-N-[6-(2-phenyl-ethynyl)-5-(4-pyridin-4-ylthiophen-3-yl)pyridin-2-yl]-propanamide], the pIC50 is 6.59.

The molecule `CC(N)C(=O)Nc1cccc(C#Cc2ccncc2)n1` (stereo not drawn) [Example 218, 2-amino-N-[6-(2-pyridin-4-ylethynyl)pyridin-2-yl]propanamide] showed a pIC50 of 5.18.

As to `CNC(C)C(=O)Nc1ccc(-c2c(C)nc3ccccn23)c(C#Cc2ccc(F)c3ncccc23)n1` (stereo not drawn) [Example 84, N-[6-[2-(8-fluoroquinolin-5-yl)-ethynyl]-5-(2-methyl-imidazo[1,2-a]pyridin-3-yl)-pyridin-2-yl]-2-(methylamino)-propanamide], the pIC50 was 6.89.

As to `CNC(C)C(=O)Nc1ccc(-c2ccc(C)c(C(=O)OC)c2)c(C#Cc2ccccc2)n1` (stereo not drawn) [Example 134, methyl 2-methyl-5-[6-[[2-(methylamino)propanoyl]amino]-2-(2-phenylethynyl)pyridin-3-yl]-benzoate], the pIC50 was 6.24.

With `CNC(C)C(=O)Nc1ccc(-c2c(C)noc2C)c(C#Cc2ccc3cnccc3c2)n1` (stereo not drawn) [Example 97, N-[5-(3,5-dimethyl-1,2-oxazol-4-yl)-6-(2-isoquinolin-6-ylethynyl)pyridin-2-yl]-2-(methylamino)propanamide], the pIC50 was 6.19.

`CNC(C)C(=O)Nc1ccc(-c2cncnc2)c(C#Cc2ccc3c(c2)C(=O)CCO3)n1` (stereo not drawn) [Example 11, 2-(methylamino)-N-[6-[2-(4-oxo-2,3-dihydrochromen-6-yl)ethynyl]-5-pyrimidin-5-ylpyridin-2-yl]propanamide] gave a pIC50 of 5.92.

As to `Cc1cc(C)cc(C#Cc2cccc(NC(=O)C(C)N)n2)c1` (stereo not drawn) [Example 235, 2-amino-N-[6-[2-(3,5-dimethylphenyl)ethynyl]pyridin-2-yl]propanamide], the pIC50 was 5.66.

Molecule `CNC(C)C(=O)Nc1ccc(-c2cnoc2C)c(C#Cc2ccccc2)n1` (stereo not drawn) [Example 188, 2-(methylamino)-N-[5-(5-methyl-1,2-oxazol-4-yl)-6-(2-phenyl-ethynyl)pyridin-2-yl]propanamide] showed a pIC50 of 6.89.

On to `CNC(C)C(=O)Nc1ccc(-c2cncnc2)c(C#Cc2ccc3[nH]cnc3c2)n1` (stereo not drawn) [Example 10, N-[6-[2-(1H-benzimidazol-5-yl)ethynyl]-5-pyrimidin-5-ylpyridin-2-yl]-2-(methyl-amino)propanamide], for which the pIC50 was 6.10.

As for `CNC(C)C(=O)Nc1ccc(-c2cncc3ccccc23)c(C#Cc2ccc(F)cc2)n1` (stereo not drawn) [Example 4, N-[6-[2-(4-fluorophenyl)-ethynyl]-5-isoquinolin-4-ylpyridin-2-yl]-2-(methyl-amino)propanamide], the pIC50 is 6.19. The pIC50 values of the last two molecules are within 0.2 log units of each other.

`Cc1noc(C)c1-c1ccc(NC(=O)C(C)NC(C)C)nc1C#Cc1ccccc1` (stereo not drawn) [Example 171, N-[5-(3,5-dimethyl-1,2-oxazol-4-yl)-6-(2-phenylethynyl)pyridin-2-yl]-2-(propan-2-ylamino)propanamide] showed a pIC50 of 5.99.

In turn, `CNC(C)C(=O)Nc1ccc(-c2cncnc2C)c(C#Cc2ccc(C)c(C)c2)n1` (stereo not drawn) [Example 6, N-[6-[2-(3,4-dimethylphenyl)-ethynyl]-5-(4-methylpyrimidin-5-yl)pyridin-2-yl]-2-(methylamino)propan-amide] gave a pIC50 of 6.67.

`CNC(C)C(=O)Nc1ccc(-c2cnn(C)c2-c2ccccc2)c(C#Cc2ccccc2)n1` (stereo not drawn) [Example 190, 2-(methylamino)-N-[5-(1-methyl-5-phenylpyrazol-4-yl)-6-(2-phenylethynyl)pyridin-2-yl]-propanamide] showed a pIC50 of 6.56.

The molecule `CC(N)C(=O)Nc1ccc(-c2ccccc2F)c(C#Cc2ccccc2)n1` (stereo not drawn) [Example 102, 2-amino-N-[5-(2-fluorophenyl)-6-(2-phenylethynyl)pyridin-2-yl]-propanamide] gave a pIC50 of 5.70.

Molecule `Cc1ccc(C#Cc2cccc(NC(=O)C(C)N)n2)cc1` (stereo not drawn) [Example 209, 2-amino-N-[6-[2-(4-methylphenyl)ethynyl]pyridin-2-yl]propanamide] gave a pIC50 of 5.84.

`CNC(C)C(=O)Nc1ccc(-c2cccc3c2ccn3C)c(C#Cc2ccccc2)n1` (stereo not drawn) [Example 142, 2-(methylamino)-N-[5-(1-methylindol-4-yl)-6-(2-phenyl-ethynyl)pyridin-2-yl]propanamide] showed a pIC50 of 6.30. Against the preceding molecule, the pIC50 is 0.46 log units higher.

Molecule `CNC(C)C(=O)Nc1ccc(-c2cccc3ccncc23)c(C#Cc2ccc3ncccc3c2)n1` (stereo not drawn) [Example 22, N-[5-isoquinolin-8-yl-6-(2-quinolin-6-ylethynyl)pyridin-2-yl]-2-(methylamino)propan-amide] gave a pIC50 of 5.89.

`CNC(C)C(=O)Nc1ccc(-c2c(C)nc3ccccn23)c(C#Cc2ccc(C#N)c(C)c2)n1` (stereo not drawn) [Example 38, N-[6-[2-(4-cyano-3-methyl-phenyl)ethynyl]-5-(2-methyl-imidazo[1,2-a]pyridin-3-yl)-pyridin-2-yl]-2-(methylamino)-propanamide] had a pIC50 of 6.85.

The term pIC50 denotes −log10 of the IC50, conventionally taken in molar units. Higher therefore signals a small IC50.

The values are drawn from patent US8859541B2, “6-alkynylpyridines” (Boehringer Ingelheim International GmbH, priority 2012, dated 2014).
